Measured values: US8993595B2, “Macrocyclic serine protease inhibitors” (priority 2009, dated 2015)
Read-outs that look alike come from different tables or passages of the source.

Assays:
[1] = test system: Zluc cell line (genotype 1b replicon with luciferase, unselected); assay: Extent of resistance after selection, luciferase assay, Zluc; assay type: cell-based, HCV; conditions: selecting conc. 0 nM, EC50 resistant / EC50 wild-type
Protocol: (§1) Replicon cells (genotype 1a or 1b) were treated with various concentrations of compound 52 in the presence of G418. Treatment-emergent genotypic changes were identified by population sequencing of NS3 (both protease and helicase regions). The activity of compound 52 and other compounds was evaluated by NS5A western blot after selection or luciferase assay during and after selection.

[2] = 400 mg per day
[3] = human, in vivo
[4] = monkey plasma
[5] = test system: C-1a cell line (genotype 1a replicon selected with 25 nM, D168A); assay: Extent of resistance after selection, C-1a; assay type: cell-based, HCV; conditions: selecting conc. 25 nM
Protocol: as §1

human UGT1A1 = target: T1, human UGT1A1 (Homo sapiens, UniProt P22309); assay: UGT1A1 inhibition assay; assay type: in vitro ADME; conditions: human liver microsomes, bilirubin as substrate
T1 construct: examined using human liver microsomes and bilirubin as substrate; from tissue; host or cells: human liver microsomes
T1 sequence (P22309 26-533): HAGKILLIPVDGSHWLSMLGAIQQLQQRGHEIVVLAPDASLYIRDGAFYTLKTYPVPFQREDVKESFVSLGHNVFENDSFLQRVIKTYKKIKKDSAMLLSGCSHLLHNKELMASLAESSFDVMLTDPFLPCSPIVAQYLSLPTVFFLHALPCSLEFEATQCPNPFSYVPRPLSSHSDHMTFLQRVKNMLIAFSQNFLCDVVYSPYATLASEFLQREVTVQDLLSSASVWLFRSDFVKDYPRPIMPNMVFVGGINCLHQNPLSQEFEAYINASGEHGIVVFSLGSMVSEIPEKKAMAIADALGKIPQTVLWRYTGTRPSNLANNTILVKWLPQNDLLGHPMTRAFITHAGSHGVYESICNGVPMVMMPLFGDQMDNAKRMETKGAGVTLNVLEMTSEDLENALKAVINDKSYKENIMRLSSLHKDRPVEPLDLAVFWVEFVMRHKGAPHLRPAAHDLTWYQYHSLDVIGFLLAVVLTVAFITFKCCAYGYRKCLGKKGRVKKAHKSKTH
Protocol: (§2) Compound 52 was incubated with human CYP450 cDNA-expressed isoenzymes according to the protocol (BD Bioscience). For CYP2C9, a luminogenic substrate was used with the P450-Glo™ kit. In addition, the effect of the compound on CYP2C9-mediated diclofenac metabolism was measured by LC-UV. The potential inhibitory effect of the compound on human UGT1A1 was examined using human liver microsomes and bilirubin as substrate. The metabolites (mono- and di-glucuronidated bilirubin) were measured by LC-UV.

[6] = test system: JFH-1 (genotype 2a) virus in HPC cells; assay: HCV in vitro infection core ELISA assay; assay type: cell-based
Protocol: HPC cells were infected with JFH-1 (genotype 2a) and treated with the compound for 4 days (virus inoculum was removed after 16 hrs). Remaining virus was measured by an anti-HCV core ELISA. Compound cytotoxicity was also measured in parallel using a colorimetric proliferation assay as described in Example 5.
The HCV in vitro infection core ELISA assay measures the ability of a test compound to inhibit replication of an infectious HCV (strain JFH-1; genotype 2a) in cell culture. […] We have developed this model for determining the efficacy of antiviral compounds against an infectious virus in vitro using HCV producing cells (HPC), a proprietary Huh-7-derived cell sublineage capable of propagating the JFH-1 HCV virus. The readout of the assay is quantification of HCV core protein by ELISA 5 days post infection with JFH-1 virus and treatment with a test compound. […]
OPD solution was prepared using 1 OPD tablet+12 mL citrate/phosphate buffer (16 mM citric acid, 27 mM Na2HPO4) plus 5 μL 30% H2O2 per plate. […] The reaction was stopped with 100 μL/well of 2N H2SO4, and absorbance measured at A490 nm in a Victor^3 V 1420 multilabel counter (Perkin Elmer). The EC50 values for each compound were calculated from dose response curves from the resulting best-fit equations determined by Microsoft Excel and XLfit 4.1 software. […]

[7] = target: T2, HCV NS3-4A Protease Genotype 3a (Hepatitis C virus genotype 3a, UniProt Q81258); assay: HCV protease assay, recombinant NS3-4A genotype 3a; assay type: biochemical; conditions: mean ± SD, 3 experiments
T2 construct: recombinant HCV NS3-4A proteases
T2 sequence (Q81258 1664-1717): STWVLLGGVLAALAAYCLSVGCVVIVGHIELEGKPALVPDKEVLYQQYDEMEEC
T2 sequence (Q81258 1033-1663): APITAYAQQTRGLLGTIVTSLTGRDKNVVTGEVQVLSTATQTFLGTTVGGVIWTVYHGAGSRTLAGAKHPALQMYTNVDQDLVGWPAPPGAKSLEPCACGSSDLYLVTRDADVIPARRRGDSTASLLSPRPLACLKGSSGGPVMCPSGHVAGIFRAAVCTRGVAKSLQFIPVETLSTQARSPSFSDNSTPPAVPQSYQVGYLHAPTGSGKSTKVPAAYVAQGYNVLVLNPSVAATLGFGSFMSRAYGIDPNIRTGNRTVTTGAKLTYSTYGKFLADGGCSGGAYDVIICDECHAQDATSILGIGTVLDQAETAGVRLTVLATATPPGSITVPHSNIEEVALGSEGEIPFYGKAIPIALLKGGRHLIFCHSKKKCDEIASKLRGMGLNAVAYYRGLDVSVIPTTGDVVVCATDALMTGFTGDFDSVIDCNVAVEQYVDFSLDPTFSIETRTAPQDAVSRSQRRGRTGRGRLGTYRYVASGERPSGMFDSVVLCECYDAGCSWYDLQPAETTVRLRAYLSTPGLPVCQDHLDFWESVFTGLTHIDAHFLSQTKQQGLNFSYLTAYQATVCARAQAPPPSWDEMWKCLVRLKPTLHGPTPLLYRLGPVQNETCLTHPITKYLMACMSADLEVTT
Protocol: The compounds were tested at a variety of concentrations in assay buffer containing a final DMSO concentration of 5%. Reactions were allowed to proceed for 60 min at room temperature and fluorescence measurements were recorded with a Tecan Infinity Spectrofluorimeter. The IC50 values were determined from the percent inhibition versus concentration data using a sigmoidal non-linear regression analysis based on four parameters with Tecan Magellan software.
Compound 52 was tested against genotypes 1a, 1b, 2a, 3a, and 4a of recombinant HCV NS3-4A proteases, along with other cellular proteases.

human CYP450 3A4 = target: T3, human CYP450 3A4 (Homo sapiens, UniProt P08684); assay: CYP450 inhibition assay, 3A4; assay type: in vitro ADME
T3 construct: purchased BD Bioscience
T3 sequence (P08684 whole entry): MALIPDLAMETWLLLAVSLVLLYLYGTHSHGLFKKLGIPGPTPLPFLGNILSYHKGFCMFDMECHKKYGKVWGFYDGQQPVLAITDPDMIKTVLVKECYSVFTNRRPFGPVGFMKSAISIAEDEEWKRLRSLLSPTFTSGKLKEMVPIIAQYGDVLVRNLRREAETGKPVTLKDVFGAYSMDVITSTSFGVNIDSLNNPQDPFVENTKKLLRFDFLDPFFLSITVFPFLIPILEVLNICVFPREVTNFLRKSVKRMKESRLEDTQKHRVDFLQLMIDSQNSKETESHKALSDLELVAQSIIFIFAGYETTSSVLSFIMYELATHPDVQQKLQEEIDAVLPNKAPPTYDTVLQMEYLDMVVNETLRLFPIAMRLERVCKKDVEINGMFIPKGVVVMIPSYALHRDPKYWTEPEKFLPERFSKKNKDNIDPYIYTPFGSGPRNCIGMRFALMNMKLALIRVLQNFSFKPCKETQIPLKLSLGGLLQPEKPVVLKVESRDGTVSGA
Protocol: as §2

[8] = Pharmacokinetics in human volunteers, single dose cohorts

COc1ccc2c(O[C@H]3CCN4C(=O)N(C)CCCC/C=C\[C@@H]5C[C@@]5(C(=O)NS(=O)(=O)C5(C)CC5)NC(=O)[C@@H]4C3)cc(-c3nc(C(F)(F)F)cs3)nc2c1C [Compound 52, 1-methyl-cyclopropanesulfonic acid{(Z)-(1S,4R,6S,18S)-18-[7-methoxy-8-methyl-2-(4-trifluoromethyl-thiazol-2-yl)-quinolin-4-yloxy]-13-methyl-2,14-dioxo-3,13,15-triaza-tricyclo[13.4.0.0*4,6*]nonadec-7-ene-4-carbonyl}amide] gave a Fold-Change [1] of 1, a C24 hr ([2]; PK Day 1) of 117 ± 53 ng/mL and a C24 hr ([2]; PK Day 2) of 165 ± 87 ng/mL. For the same molecule, the C24 hr ([2]; PK Day 3) was 197 ± 112 ng/mL, the C24 hr [3] was 8 ± 5 ng/mL and the “protein bound in plasma” value [4] was 99.9%. For the same molecule, the Fold-Change [5] was 900 ± 64, the IC50 (human UGT1A1) was no less than 10000 nM and the “Selectivity Index” value ([6]; 2a virus) was 2,568. For the same molecule, the EC50 ([6]; Hepatitis C virus, 96 h, 2a virus (JFH-1), HPC cells, 4 days, anti-HCV core ELISA) was 4.4 ± 0.6 nM, the IC50 [7] was 23 ± 1.9 nM and the IC50 (human CYP450 3A4) was no less than 10000 nM. The “total and trough exposure, HCV-infected patients compared to healthy volunteers” value ([8]; 2 HCV-infected patients, comparable Cmax) was 2 fold, the “enhancement of overall plasma exposure by food” value ([8]; food compared to fasting state) was “approximately 2 fold” and the C24 hr ([8]; single dose 100 mg, human volunteers) was 19 ± 9 ng/mL. For the same molecule, the C24 hr ([8]; single dose 200 mg, HCV patients, N = 2) was 131 ng/mL, the C24 hr ([8]; single dose 200 mg, human volunteers) was 53 ± 26 ng/mL and the C24 hr ([8]; single dose 400 mg Fasted, human volunteers) was 54 ± 28 ng/mL. For the same molecule, the C24 hr ([8]; single dose 400 mg, human volunteers) was 89 ± 16 ng/mL.
